Read-outs that look alike come from different tables or passages of the source. Where a SMILES comes first, the peptide text is derived from it. Bridges are numbered along the chain shown (N, C = ends). [ ]: non-standard residue; d: D form. The star is where a group is joined. hPhe(3-Cl-4-CF3) = N[C@@H](CCc1ccc(C(F)(F)F)c(Cl)c1)C(=O)O; NPrPhe(4-CF3) = CCCN[C@@H](Cc1ccc(C(F)(F)F)cc1)C(=O)O; NPrPhe(4-Me) = CCCN[C@@H](Cc1ccc(C)cc1)C(=O)O; NMeGly(cPent) = CN[C@H](C(=O)O)C1CCCC1; Pro(4,4-F2) = O=C(O)[C@@H]1CC(F)(F)CN1; NMeD = CN[C@@H](CC(=O)O)C(=O)O; NMeL = CN[C@@H](CC(C)C)C(=O)O; Morpholide = C1CN(*)CCO1; NMeA = CN[C@@H](C)C(=O)O; Ac5c = NC1(C(=O)O)CCCC1; Aze = O=C(O)[C@@H]1CCN1; Ac4c = NC1(C(=O)O)CCC1; NEtG = CCNCC(=O)O; Sar = CNCC(=O)O
What was measured:
[1] = biological target: GDP-bound HRAS wild-type protein (Homo sapiens, UniProt P01112); assay: Binding to HRAS by surface plasmon resonance (SPR), Single Cycle Kinetics; settings: for HRAS/KRAS (ratio of KD value with respect to HRAS to KD value with respect to KRAS) / HRAS/KRAS (ratio of KD value for HRAS to KD value for KRAS): SPR, GDP-bound HRAS wild-type protein vs GDP-bound KRAS wild-type protein
GDP-bound HRAS wild-type protein, sequence (P01112 whole entry): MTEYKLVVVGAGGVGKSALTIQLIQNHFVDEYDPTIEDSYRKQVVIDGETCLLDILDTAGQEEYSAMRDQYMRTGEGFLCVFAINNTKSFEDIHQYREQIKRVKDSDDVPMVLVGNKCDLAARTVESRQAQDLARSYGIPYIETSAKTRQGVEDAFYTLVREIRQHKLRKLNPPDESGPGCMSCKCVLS

[2] = biological target: GDP-bound NRAS wild-type protein (Homo sapiens, UniProt P01111); assay: Binding to NRAS by surface plasmon resonance (SPR), Single Cycle Kinetics; settings: for NRAS/KRAS (ratio of KD value with respect to NRAS to KD value with respect to KRAS) / NRAS/KRAS (ratio of KD value for NRAS to KD value for KRAS): SPR, GDP-bound NRAS wild-type protein vs GDP-bound KRAS wild-type protein
GDP-bound NRAS wild-type protein, sequence (P01111 whole entry): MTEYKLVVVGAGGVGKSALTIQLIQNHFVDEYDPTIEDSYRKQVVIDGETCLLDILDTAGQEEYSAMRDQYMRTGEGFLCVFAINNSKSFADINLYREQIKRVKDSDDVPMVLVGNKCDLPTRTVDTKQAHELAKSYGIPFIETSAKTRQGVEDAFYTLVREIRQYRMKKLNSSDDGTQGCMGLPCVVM

[3] = biological target: GDP-bound KRAS wild-type protein (Homo sapiens, UniProt P01116); assay: Binding to KRAS by surface plasmon resonance (SPR), Single Cycle Kinetics; settings: GDP-bound KRAS wild-type protein, read-out: KRAS KD
GDP-bound KRAS wild-type protein, sequence (P01116 whole entry): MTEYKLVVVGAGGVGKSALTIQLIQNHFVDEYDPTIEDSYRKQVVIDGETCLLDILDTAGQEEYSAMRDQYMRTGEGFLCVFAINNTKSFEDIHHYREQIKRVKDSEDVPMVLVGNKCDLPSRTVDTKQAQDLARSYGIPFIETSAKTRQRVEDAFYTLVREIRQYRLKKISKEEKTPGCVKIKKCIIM

[4] = SPR Single Cycle Kinetics, 1:1 binding model

Structure (SMILES)	Kd [3, 4] [nM]	Kd ([3]; SPR, Single Cycle Kinetics) [nM]	HRAS/KRAS (ratio of KD value with respect to HRAS to KD value with respect to KRAS) [1]	NRAS/KRAS (ratio of KD value with respect to NRAS to KD value with respect to KRAS) [2]	HRAS/KRAS (ratio of KD value for HRAS to KD value for KRAS) [1]	NRAS/KRAS (ratio of KD value for NRAS to KD value for KRAS) [2]	HRAS/KRAS (ratio of KD value with respect to GDP-bound HRAS wild-type protein to KD value with respect to KRAS) ([1]; SPR KD ratio HRAS/KRAS, class symbols)	NRAS/KRAS (ratio of KD value with respect to GDP-bound NRAS wild-type protein to KD value with respect to KRAS) ([2]; SPR KD ratio NRAS/KRAS, class symbols)
CCO[C@@H]1C[C@H]2C(=O)NC3(CCC3)C(=O)N(C)[C@@H](C3CCCC3)C(=O)N(C)[C@H](C(=O)N3CCOCC3)CC(=O)N(C)[C@@H](CC(F)F)C(=O)N[C@@H]([C@@H](C)CC)C(=O)N(C)CC(=O)N(C)[C@H]3CCCCCN(C3=O)[C@@H](Cc3ccc(C(F)(F)F)cc3)C(=O)N(C)CC(=O)N[C@@H](CCc3cc(F)c(C(F)(F)F)c(F)c3)C(=O)N2C1 [PP0854]		0.38			B (a compound having 3 or more and less than 10 is denoted as B)	B (a compound having 3 or more and less than 10 is denoted as B)		
CCO[C@@H]1C[C@H]2C(=O)NC3(CC(C)(C)C3)C(=O)N(C)[C@@H](C3CCCC3)C(=O)N(C)[C@H](C(=O)N(C)C)CC(=O)N(C)[C@@H](C)C(=O)N[C@@H]([C@@H](C)CC)C(=O)N(C)CC(=O)N(C)[C@H]3CCCCCN(C3=O)[C@@H](Cc3ccc(C(F)(F)F)cc3)C(=O)N(C)CC(=O)N[C@@H](CCc3cc(F)c(C(F)(F)F)c(F)c3)C(=O)N2C1 [PP0723]	0.47		B (a compound having 3 or more and less than 10 is denoted as B)	B (a compound having 3 or more and less than 10 is denoted as B)				
CCCN(C)C(=O)[C@@H]1CC(=O)N(C)[C@@H](C(C)C)C(=O)N[C@@H]([C@@H](C)CC)C(=O)N(C)CC(=O)N(C)[C@H]2C/C=C\CCN(C2=O)[C@@H](Cc2ccc(C(F)(F)F)cc2)C(=O)N(C)CC(=O)N[C@@H](CCc2ccc(C(F)(F)F)c(OC)c2)C(=O)N2C[C@@H](C)C[C@H]2C(=O)NC2(CCC2)C(=O)N(C)[C@@H](C2CCCC2)C(=O)N1C [PP2067]		0.24			A (a compound having 10 or more and less than 20 is denoted as A)	AA (a compound having 20 or more is denoted as AA)		
CC[C@H](C)[C@@H]1NC(=O)[C@H](CC(C)C)N(C)C(=O)C[C@@H](C(=O)N2CCOCC2)N(C)C(=O)[C@H](C2CCCC2)N(C)C(=O)C2(CCCC2)NC(=O)[C@@H]2CCCN2C(=O)[C@H](CCc2ccc(C(F)(F)F)c(Cl)c2)NC(=O)CN(C)C(=O)[C@H](Cc2ccc(C)cc2)N2CCCCC[C@@H](C2=O)N(C)C(=O)CN(C)C1=O [PP0317]	0.86				B (a compound having 3 or more and less than 10 is denoted as B)	B (a compound having 3 or more and less than 10 is denoted as B)		
CCCN1C(=O)CN(C)C(=O)CN(CC)C(=O)[C@H]([C@@H](C)CC)NC(=O)[C@H](CC(C)C)N(C)C(=O)C[C@@H](C(=O)N2CCOCC2)NC(=O)[C@H](C2CCCC2)N(C)C(=O)C2(CCC2)NC(=O)[C@@H]2CCCN2C(=O)[C@H](CCc2ccc(C(F)(F)F)c(Cl)c2)NC(=O)CN(C)C(=O)[C@@H]1Cc1ccc(C(F)(F)F)cc1 [PP0332] ([NMeL]I[NEtG][Sar][NPrPhe(4-CF3)][Sar][hPhe(3-Cl-4-CF3)]P[Ac4c][NMeGly(cPent)]D-Morpholide; lactam N-11)	3.2				B (a compound having 3 or more and less than 10 is denoted as B)	B (a compound having 3 or more and less than 10 is denoted as B)		
C#CC[C@H]1C(=O)N[C@@H]([C@@H](C)CC)C(=O)N(C)CC(=O)N(C)[C@H]2C/C=C\CCN(C2=O)[C@@H](Cc2ccc(C(F)(F)F)cc2)C(=O)N(C)CC(=O)N[C@@H](CCc2cc(F)c(C(F)(F)F)c(F)c2)C(=O)N2C[C@@H](C)C[C@H]2C(=O)NC2(CC(C)(C)C2)C(=O)N(C)[C@@H](C2CCCC2)C(=O)N(C)[C@H](C(=O)N(C)CCC)CC(=O)N1C [PP2076]		0.39			A (a compound having 10 or more and less than 20 is denoted as A)	A (a compound having 10 or more and less than 20 is denoted as A)		

Second part, led by results:

Kd [3, 4] [nM]	Kd ([3]; SPR, Single Cycle Kinetics) [nM]	Structure (SMILES)	HRAS/KRAS (ratio of KD value with respect to HRAS to KD value with respect to KRAS) [1]	NRAS/KRAS (ratio of KD value with respect to NRAS to KD value with respect to KRAS) [2]	HRAS/KRAS (ratio of KD value for HRAS to KD value for KRAS) [1]	NRAS/KRAS (ratio of KD value for NRAS to KD value for KRAS) [2]	HRAS/KRAS (ratio of KD value with respect to GDP-bound HRAS wild-type protein to KD value with respect to KRAS) ([1]; SPR KD ratio HRAS/KRAS, class symbols)	NRAS/KRAS (ratio of KD value with respect to GDP-bound NRAS wild-type protein to KD value with respect to KRAS) ([2]; SPR KD ratio NRAS/KRAS, class symbols)
0.24		CC[C@H](C)[C@@H]1NC(=O)[C@H](CC(C)C)N(C)C(=O)C[C@@H](C(=O)N2CCOCC2)N(C)C(=O)[C@H](C2CCCC2)N(C)C(=O)C2(CCCC2)NC(=O)[C@@H]2CCCN2C(=O)[C@H](CCc2cc(F)c(C(F)(F)F)c(F)c2)NC(=O)CN(C)C(=O)[C@H](Cc2ccc(C(F)(F)F)cc2)N2CCCC[C@@H](C2=O)N(C)C(=O)CN(CC)C1=O [PP0545]	B (a compound having 3 or more and less than 10 is denoted as B)	B (a compound having 3 or more and less than 10 is denoted as B)				
0.12		CCCN1C(=O)[C@@H]2CCN2C(=O)[C@H](C)N(C)C(=O)[C@H]([C@@H](C)CC)NC(=O)[C@H](CC(C)C)N(C)C(=O)C[C@@H](C(=O)N2CCOCC2)N(C)C(=O)[C@H](C2CCCC2)N(C)C(=O)C2(CCCC2)NC(=O)[C@@H]2CCCN2C(=O)[C@H](CCc2ccc(C(F)(F)F)c(Cl)c2)NC(=O)CN(C)C(=O)[C@@H]1Cc1ccc(C)cc1 [PP0052] ([NMeL]I[NMeA][Aze][NPrPhe(4-Me)][Sar][hPhe(3-Cl-4-CF3)]P[Ac5c][NMeGly(cPent)][NMeD]-Morpholide; lactam N-11)			B (a compound having 3 or more and less than 10 is denoted as B)	C (A compound having a KD ratio of 0.1 or more and less than 3 is denoted as C)		
0.015		CCO[C@@H]1C[C@H]2C(=O)NC3(CCC3)C(=O)N(C)[C@@H](C3CCCC3)C(=O)N(C)[C@H](C(=O)N(C)C)CC(=O)N(C)[C@@H](CC3CCC3)C(=O)N[C@@H]([C@@H](C)CC)C(=O)N(C)CC(=O)N(C)[C@H]3CCCCN(C3=O)[C@@H](Cc3ccc(C(F)(F)F)cc3)C(=O)N(C)CC(=O)N[C@@H](CCc3cc(F)c(C(F)(F)F)c(F)c3)C(=O)N2C1 [PP0698]	C (A compound having a KD ratio of 0.1 or more and less than 3 is denoted as C)	C (A compound having a KD ratio of 0.1 or more and less than 3 is denoted as C)				
0.17		CC[C@H](C)[C@@H]1NC(=O)[C@@H]2CCC/C=C/c3ccc(cc3)C[C@@H](C(=O)N(C)CC(=O)N[C@@H](CCc3ccc(Cl)c(Cl)c3)C(=O)N3C[C@H](OC(C)C)C[C@H]3C(=O)NC3(CC(C)(C)C3)C(=O)N(C)[C@@H](C3CCCC3)C(=O)N(C)[C@H](C(=O)N(C)CC)CC(=O)N2C)N2CC/C=C\C[C@@H](C2=O)N(C)C(=O)CN(C)C1=O [PP2595]					B (a compound having 3 or more and less than 10 is denoted as B)	A (a compound having 10 or more and less than 20 is denoted as A)
0.21		CC[C@H](C)[C@@H]1NC(=O)[C@H](CC(C)C)N(C)C(=O)C[C@@H](C(=O)N2CCOCC2)N(C)C(=O)[C@H](C2CCCCC2)N(C)C(=O)C2(CCCC2)NC(=O)[C@@H]2CCCN2C(=O)[C@H](CCc2cc(F)c(C(F)(F)F)c(F)c2)NC(=O)CN(C)C(=O)[C@H](Cc2ccc(C(F)(F)F)cc2)N2CCCC[C@@H](C2=O)N(C)C(=O)CN(C)C1=O [PP0567]	B (a compound having 3 or more and less than 10 is denoted as B)	B (a compound having 3 or more and less than 10 is denoted as B)				
0.05		CC[C@H](C)[C@@H]1NC(=O)[C@H](CC(C)C)N(C)C(=O)C[C@@H](C(=O)N2CCOCC2)N(C)C(=O)[C@H](C2CCCC2)N(C)C(=O)C2(CCC2)NC(=O)[C@@H]2CCCN2C(=O)[C@H](CCc2cc(F)c(C(F)(F)F)c(F)c2)NC(=O)CN(C)C(=O)[C@H](Cc2ccc(C(F)(F)F)cc2)N2CCCC[C@@H](C2=O)N(C)C(=O)CN(C)C1=O [PP0560]	B (a compound having 3 or more and less than 10 is denoted as B)	B (a compound having 3 or more and less than 10 is denoted as B)				
0.068		CCCN1C(=O)CN(C)C(=O)CNC(=O)[C@H]([C@@H](C)CC)NC(=O)[C@H](CC(C)C)N(C)C(=O)C[C@@H](C(=O)N2CCOCC2)N(C)C(=O)[C@H](C2CCCC2)N(C)C(=O)C2(CCC2)NC(=O)[C@@H]2CC(F)(F)CN2C(=O)[C@H](CCc2ccc(C(F)(F)F)c(Cl)c2)NC(=O)CN(C)C(=O)[C@@H]1Cc1ccc(C(F)(F)F)cc1 [PP0395] ([NMeL]IG[Sar][NPrPhe(4-CF3)][Sar][hPhe(3-Cl-4-CF3)][Pro(4,4-F2)][Ac4c][NMeGly(cPent)][NMeD]-Morpholide; lactam N-11)			C (A compound having a KD ratio of 0.1 or more and less than 3 is denoted as C)	B (a compound having 3 or more and less than 10 is denoted as B)		
